Experimental findings from patent publication US11337921B2, “Multi-use torasemide composition” (VETOQUINOL SA, priority 2018, dated 2022) are described below.

The data set can be described thus: Solubility of torasemide as a function of pH. In kind it is physicochemical. The settings on record: pH between about 2 and 7 (FIG. 1). The source says:
Moreover, the solubility of torasemide depends on the pH of the solution. The stability of torasemide in solution is, moreover, a function of the additives and excipients used in the composition. Thus, torasemide is insoluble at a pH between about 2 and 7 (FIG. 1).

For the compound `Cc1cccc(Nc2ccncc2S(=O)(=O)NC(=O)NC(C)C)c1` [torasemide, 1-isopropyl-3-[(4-m-toluidino-3-pyridyl)sulfonyl]urea], the Solubility of torasemide entry is on record as “insoluble”.
